Reference: ChEMBL document CHEMBL5625250, “Discovery of novel flavonoid-based CDK9 degraders for prostate cancer treatment via a PROTAC strategy” (Eur J Med Chem, 2023)
Converted amounts (≈) assume the structure as drawn. The source made the active and inactive calls. The rule behind the calls is not given here.

Key:
[1] = Solubility of the compound in water at pH 6.0 by shake flask method; type: physicochemical
CWR22R = assay: Antiproliferative activity against human 22Rv1 cells assessed as reduction in cell viability incubated for 72 hrs by SRB assay; type: functional, cell-based; conditions: 22Rv1, 72 h
[2] = Solubility of the compound in water at pH 7.4 by shake flask method; type: physicochemical
[3] = biological target: T1, Cyclin-dependent kinase 9 (Homo sapiens, UniProt P50750); assay: Inhibition of CDK9 (unknown origin) at 20 nM in presence of ATP by ADP-Glo kinase assay relative to control
T1 sequence (P50750 whole entry): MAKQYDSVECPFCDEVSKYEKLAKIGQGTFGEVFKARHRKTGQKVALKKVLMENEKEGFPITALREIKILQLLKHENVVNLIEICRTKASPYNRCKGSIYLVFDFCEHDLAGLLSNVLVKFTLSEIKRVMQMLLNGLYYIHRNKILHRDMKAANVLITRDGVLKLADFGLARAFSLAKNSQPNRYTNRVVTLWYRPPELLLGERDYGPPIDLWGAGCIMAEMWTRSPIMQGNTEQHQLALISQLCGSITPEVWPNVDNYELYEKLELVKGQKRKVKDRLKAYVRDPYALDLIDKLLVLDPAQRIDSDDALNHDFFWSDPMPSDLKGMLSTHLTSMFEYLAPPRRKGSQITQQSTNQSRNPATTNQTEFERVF

[4] = biological target: T2, Protein cereblon/Cyclin-dependent kinase 9 (Homo sapiens, UniProt P50750+Q96SW2); assay: PROTAC activity at CRBN/CDK9 in human 22Rv1 cells assessed as degradation of CDK9 protein at 100 nM incubated for 12 hrs by Western blotting analysis; type: cell-based
T2 sequence (P50750 whole entry, looked up): as the sequence (P50750 whole entry) above
T2 sequence (Q96SW2 whole entry, looked up): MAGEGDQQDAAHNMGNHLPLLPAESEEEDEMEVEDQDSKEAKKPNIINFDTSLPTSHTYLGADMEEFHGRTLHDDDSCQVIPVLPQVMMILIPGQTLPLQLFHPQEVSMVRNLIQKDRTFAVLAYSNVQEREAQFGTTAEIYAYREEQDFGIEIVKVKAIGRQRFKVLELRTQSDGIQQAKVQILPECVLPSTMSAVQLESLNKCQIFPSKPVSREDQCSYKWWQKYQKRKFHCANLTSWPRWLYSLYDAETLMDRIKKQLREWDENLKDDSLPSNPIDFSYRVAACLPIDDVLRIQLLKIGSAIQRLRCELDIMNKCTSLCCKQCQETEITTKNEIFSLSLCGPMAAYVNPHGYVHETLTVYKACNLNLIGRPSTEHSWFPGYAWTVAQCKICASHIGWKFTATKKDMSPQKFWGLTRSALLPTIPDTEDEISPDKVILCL

[5] = biological target: T2, Protein cereblon/Cyclin-dependent kinase 9; assay: PROTAC activity at CRBN/CDK9 in human 22Rv1 cells assessed as degradation of CDK9 protein at 20 nM incubated for 12 hrs by Western blotting analysis relative to control; type: cell-based
[6] = biological target: T2, Protein cereblon/Cyclin-dependent kinase 9; assay: PROTAC activity at CRBN/CDK9 in human 22Rv1 cells assessed as reduction in cyclin T1 expression at 1.5 uM incubated for 24 hrs by Western blotting analysis; type: cell-based
[7] = biological target: T1, Cyclin-dependent kinase 9; assay: Inhibition of CDK9 (unknown origin) in presence of ATP by ADP-Glo kinase assay

solubility thermodynamic [1] [µg/mL] | solubility thermodynamic [2] [µg/mL] | inhibition [3] [%] | Activity [4] | Activity [5] [%] | SMILES | IC50 (CWR22R) [nM] | Activity [6] | IC50 [7] [nM]
193 (≈ 241 µM) | 41 (≈ 51.2 µM) | 89.3 |  |  | COc1cc(O)c2c(=O)cc(-c3ccc(N4CCN(CC5CCN(c6cccc7c6C(=O)N(C6CCC(=O)NC6=O)C7=O)CC5)CC4)cc3)oc2c1C1=CCN(C)CC1 (configuration not stated) | 70 |  | 
< 10 | < 10 | 74.2 | Active |  | COc1cc(O)c2c(=O)cc(-c3ccc(N4CCN(C(=O)CCCCOc5cccc6c5C(=O)N(C5CCC(=O)NC5=O)C6=O)CC4)cc3)oc2c1C1=CCN(C)CC1 (configuration not stated) | 860 |  | 
117 (≈ 144 µM) | 45 (≈ 55.2 µM) | 75 |  |  | COc1cc(O)c2c(=O)cc(-c3ccc(N4CCN(CCC5CCN(c6ccc7c(c6)C(=O)N(C6CCC(=O)NC6=O)C7=O)CC5)CC4)cc3)oc2c1C1=CCN(C)CC1 (configuration not stated) | 350 |  | 
< 10 | < 10 | 79 | Active |  | COc1cc(O)c2c(=O)cc(-c3ccc(N4CCN(C(=O)CCCOc5cccc6c5C(=O)N(C5CCC(=O)NC5=O)C6=O)CC4)cc3)oc2c1C1=CCN(C)CC1 (configuration not stated) | 410 |  | 
< 10 | 21 (≈ 25.8 µM) | 90.4 |  | > 50 | COc1cc(O)c2c(=O)cc(-c3ccc(N4CCN(C(=O)C5CCN(c6ccc7c(c6)C(=O)N(C6CCC(=O)NC6=O)C7=O)CC5)CC4)cc3)oc2c1C1=CCN(C)CC1 (configuration not stated) | 20 |  | 

SMILES | solubility thermodynamic [1] [µg/mL] | solubility thermodynamic [2] [µg/mL] | inhibition [3] [%] | Activity [4] | Activity [5] [%] | IC50 (CWR22R) [nM] | Activity [6] | IC50 [7] [nM]
COc1cc(O)c2c(=O)cc(-c3ccc(N4CCN(C)CC4)cc3)oc2c1C1=CCN(C)CC1 |  |  | 69.2 |  |  | 1250 | inactive | 66.7
